Experimental data: the supplement of paper PMC11061612

Experiments:
Assay in all cases: Bliss excess, mean over the matrix (fraction); higher = more synergy
[1] = system: LU-165 (Small Cell Lung Carcinoma)
In short: (§1)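 Bliss excess equals the observed combination effect minus the expected value EA + EB − EA·EB, where EA and EB are the effects of each agent alone. Combination Emax is the second-highest inhibition within the matrix. Inhibition was scaled from CellTiter-Glo 2.0 luminescence, with 0 set by vehicle wells and 1 by blank wells, after 72 hours of two-drug dosing of cells plated in 1536-well plates.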

769-P (Kidney Carcinoma) = system: 769-P (Kidney Carcinoma)
In short: as §1

[2] = system: JHU-022 (Oral Cavity Carcinoma)
In short: as §1

HCC70 (Breast Carcinoma) = system: HCC70 (Breast Carcinoma)
In short: as §1

[3] = system: NCI-H1703 (Squamous Cell Lung Carcinoma)
In short: as §1

[4] = system: MHH-ES-1 (Ewing's Sarcoma)
In short: as §1

[5] = system: UACC-812 (Breast Carcinoma)
In short: as §1

[6] = system: MDA-MB-436 (Breast Carcinoma)
In short: as §1

[7] = system: NCI-H441 (Lung Adenocarcinoma)
In short: as §1

[8] = system: CGTH-W-1 (Thyroid Gland Carcinoma)
In short: as §1

[9] = system: JHH-2 (Hepatocellular Carcinoma)
In short: as §1

[10] = system: A2780 (Ovarian Carcinoma)
In short: as §1

PEO1 (Ovarian Carcinoma) = system: PEO1 (Ovarian Carcinoma)
In short: as §1

[11] = system: KYSE-220 (Esophageal Squamous Cell Carcinoma)
In short: as §1

EB2 (Burkitt's Lymphoma) = system: EB2 (Burkitt's Lymphoma)
In short: as §1

[12] = system: SW620 (Colorectal Carcinoma)
In short: as §1

IM-9 (Non-Cancerous) = system: IM-9 (Non-Cancerous)
In short: as §1

[13] = system: HCC1395 (Breast Carcinoma)
In short: as §1

[14] = system: SK-HEP-1 (Hepatocellular Carcinoma)
In short: as §1

WM1552C (Melanoma) = system: WM1552C (Melanoma)
In short: as §1

Compound | Bliss excess [1] | Bliss excess (769-P (Kidney Carcinoma)) | Bliss excess [2] | Bliss excess (HCC70 (Breast Carcinoma)) | Bliss excess [3] | Bliss excess [4] | Bliss excess [5] | Bliss excess [6] | Bliss excess [7] | Bliss excess [8] | Bliss excess [9] | Bliss excess [10] | Bliss excess (PEO1 (Ovarian Carcinoma)) | Bliss excess [11] | Bliss excess (EB2 (Burkitt's Lymphoma)) | Bliss excess [12] | Bliss excess (IM-9 (Non-Cancerous)) | Bliss excess [13] | Bliss excess [14] | Bliss excess (WM1552C (Melanoma))
CN(CCO)CC[C@H](CSc1ccccc1)Nc1ccc(S(=O)(=O)NC(=O)c2ccc(N3CCC([C@@H](O)c4ccccc4-c4ccc(Cl)cc4)CC3)cc2)cc1S(=O)(=O)C(F)(F)F [AZD4320] + CC(=O)O[C@H]1C(=O)[C@@]2(C)[C@H]([C@H](OC(=O)c3ccccc3)[C@]3(O)C[C@H](OC(=O)[C@H](O)[C@@H](NC(=O)c4ccccc4)c4ccccc4)C(C)=C1C3(C)C)[C@]1(OC(C)=O)CO[C@@H]1C[C@@H]2O [Paclitaxel] (first compound max 1 µM, 7x7, partner max 3 µM) | 0.137 | -0.0444 | 0.155 | 0.0533 | -0.0223 | 0.0393 | 0.0887 | 0.0892 | 0.0861 | 0.277 | -0.0037 | -0.0362 | -0.0057 | 0.0169 | -0.0306 | 0.11 | 0.0239 | 0.174 | 0.0236 | -0.0076
Cc1cc2ncnn2cc1Nc1ncc2c(n1)n(C1CCOCC1)c(=O)n2C [AZD7648] + CN(C)CCCOc1ccc(-c2ccc3ncc4c(c3c2)n(C2CCOCC2)c(=O)n4C)cn1 [AZD0156] (first compound max 10 µM, 7x7, partner max 1 µM) | 0.0071 | -0.0086 | -0.057 | -0.0122 | -0.033 | 0.0138 | 0.033 | -0.0147 | -0.0016 | 0.0015 | -0.0441 | -0.0148 | -0.0136 | 0.0204 | -0.0217 | 0.0148 | -0.0509 | -0.0273 | -0.0146 | 0.0249
CN(CCO)CC[C@H](CSc1ccccc1)Nc1ccc(S(=O)(=O)NC(=O)c2ccc(N3CCC([C@@H](O)c4ccccc4-c4ccc(Cl)cc4)CC3)cc2)cc1S(=O)(=O)C(F)(F)F [AZD4320] + Cn1cnc2c(F)c(Nc3ccc(Br)cc3Cl)c(C(=O)NOCCO)cc21 [Selumetinib] (first compound max 1 µM, 7x7, partner max 3 µM) | -0.0155 | 0.0392 | 0.0374 | 0.152 | 0.0103 | -0.0124 | 0.0065 | -0.0388 | 0.0193 | 0.0043 | -0.0267 | 0.0111 | -0.0044 | 0.043 | -0.0592 | 0.032 | 0.051 | 0.012 | 0.0008 | 0.0035
CN(CCO)CC[C@H](CSc1ccccc1)Nc1ccc(S(=O)(=O)NC(=O)c2ccc(N3CCC([C@@H](O)c4ccccc4-c4ccc(Cl)cc4)CC3)cc2)cc1S(=O)(=O)C(F)(F)F [AZD4320] + C1CN(CCC1(C(=O)N[C@@H](CCO)C2=CC=C(C=C2)Cl)N)C3=NC=NC4=C3C=CN4 [Capivasertib] (first compound max 1 µM, 7x7, partner max 3 µM) | -0.042 | -0.0478 | -0.0491 | 0.0327 | 0.0251 | -0.0261 | -0.0135 | -0.0329 | -0.0503 | -0.0436 | -0.0031 | -0.0734 | -0.0691 | -0.0056 | 0.0549 | -0.0498 | -0.0399 | -0.0479 | -0.0545 | -0.0419
CN(CCO)CC[C@H](CSc1ccccc1)Nc1ccc(S(=O)(=O)NC(=O)c2ccc(N3CCC([C@@H](O)c4ccccc4-c4ccc(Cl)cc4)CC3)cc2)cc1S(=O)(=O)C(F)(F)F [AZD4320] + C=CCn1c(=O)c2cnc(Nc3ccc(N4CCN(C)CC4)cc3)nc2n1-c1cccc(C(C)(C)O)n1 [AZD1775] (first compound max 1 µM, partner max 1 µM) | 0.0775 | -0.0025 | 0.032 | 0.006 | 0.0572 | 0.0439 | -0.0281 | -0.0404 | 0.0365 | -0.035 | -0.0067 | 0.0284 | 0.0352 | -0.047 | 0.0346 | 0.021 | 0.0638 | -0.0345 | -0.0191 | 0.0085
N#Cc1cnc(Nc2cc(NC[C@H]3CNCCO3)c(C(F)(F)F)cn2)cn1 [SRA737] + CCc1c2c(nc3ccc(O)cc13)-c1cc3c(c(=O)n1C2)COC(=O)[C@]3(O)CC [SN-38] (first compound max 10 µM, 7x7, partner max 0.3 µM) | -0.0704 | -0.0284 | -0.0966 | -0.0249 | -0.0606 | -0.0259 | -0.0309 | -0.031 | -0.0258 | -0.0377 | 0.0131 | -0.0496 | -0.0697 | 0.0163 | -0.0723 | 0.0405 | 0.0219 | -0.0012 | -0.0793 | -0.0777
C[C@@H](c1ccc2nccn2c1)n1nnc2ncc(-c3cnn(C)c3)nc21 [Savolitinib] + Cc1c2c(nn1C)CSCc1cc(n(C)n1)CSc1cc(c3ccccc3c1)OCCCc1c(C(=O)O)n(C)c3c-2c(Cl)ccc13 [AZD5991] (first compound max 1 µM, 7x7, partner max 1 µM) | -0.0046 | -0.0252 | -0.0742 | -0.0312 | -0.0063 | -0.0486 | 0.0174 | -0.0243 | -0.0416 | -0.0315 | -0.0228 | -0.074 | -0.0397 | -0.025 | -0.0501 | -0.0537 | 0.0478 | -0.0699 | -0.0402 | -0.079
CN(CCO)CC[C@H](CSc1ccccc1)Nc1ccc(S(=O)(=O)NC(=O)c2ccc(N3CCC([C@@H](O)c4ccccc4-c4ccc(Cl)cc4)CC3)cc2)cc1S(=O)(=O)C(F)(F)F [AZD4320] + C[C@@H]1COCCN1C2=NC(=NC(=C2)C3(CC3)[S@](=N)(=O)C)C4=C5C=CNC5=NC=C4 [AZD6738] (first compound max 1 µM, 7x7, partner max 10 µM) | -0.0344 | -0.0167 | -0.0035 | -0.0318 | 0.0053 | 0.0133 | -0.0348 | -0.0121 | -0.048 | -0.0342 | -0.0186 | -0.0402 | 0.0134 | -0.0076 | 0.0248 | -0.0151 | 0.0007 | 0.0007 | -0.0723 | -0.0969
Cc1cc2ncnn2cc1Nc1ncc2c(n1)n(C1CCOCC1)c(=O)n2C [AZD7648] + C[C@@H]1COCCN1C2=NC(=NC(=C2)C3(CC3)[S@](=N)(=O)C)C4=C5C=CNC5=NC=C4 [AZD6738] (first compound max 10 µM, 7x7, partner max 10 µM) | 0.0351 | 0.0264 | 0.0105 | -0.0058 | 0.0089 | 0.0275 | 0.0254 | 0.0316 | 0.0095 | 0.0191 | -0.073 | 0.0061 | -0.0121 | -0.0122 | -0.0604 | 0.0264 | -0.0417 | 0.0361 | 0.0239 | 0.0143
Cc1cc2ncnn2cc1Nc1ncc2c(n1)n(C1CCOCC1)c(=O)n2C [AZD7648] + COc1cc([C@@H]2c3cc4c(cc3[C@@H](O[C@@H]3O[C@@H]5CO[C@@H](C)O[C@H]5[C@H](O)[C@H]3O)[C@H]3COC(=O)[C@H]23)OCO4)cc(OC)c1O [Etoposide] (first compound max 10 µM, 7x7, partner max 10 µM) | -0.0132 | 0.0859 | 0.0522 | 0.0677 | 0.0532 | 0.105 | -0.0106 | 0.0189 | 0.0013 | 0.0595 | -0.0132 | 0.085 | 0.0461 | 0.066 | 0.0495 | 0.0975 | 0.12 | -0.013 | 0.0472 | 0.0922
Cc1cc2ncnn2cc1Nc1ncc2c(n1)n(C1CCOCC1)c(=O)n2C [AZD7648] + O=C(c1cc(Cc2n[nH]c(=O)c3ccccc23)ccc1F)N1CCN(C(=O)C2CC2)CC1 [Olaparib] (first compound max 10 µM, 7x7, partner max 10 µM) | -0.102 | -0.024 | -0.0682 | -0.0292 | -0.0307 | -0.0218 | -0.0119 | -0.0522 | -0.0555 | -0.0412 | -0.0099 | -0.0213 | -0.0374 | -0.0372 | 0.0055 | -0.0305 | -0.0144 | -0.0871 | -0.0428 | -0.0418
COc1cc2c(cc1OCCCCCOc1cc3c(cc1OC)C(=O)N1C=C(C)C[C@H]1C=N3)N=C[C@@H]1CC(C)=CN1C2=O [SG3199] + O=C(c1cc(Cc2n[nH]c(=O)c3ccccc23)ccc1F)N1CCN(C(=O)C2CC2)CC1 [Olaparib] (first compound max 0.001 µM, 7x7, partner max 10 µM) | -0.0532 | -0.0643 | -0.0479 | -0.0252 | -0.0451 | -0.0454 | -0.0377 | -0.0412 | -0.0871 | -0.0332 | -0.0244 | -0.0404 | -0.0397 | -0.0151 | -0.0259 | -0.0303 | -0.0059 | -0.0449 | -0.0582 | -0.0462
Cc1cc2ncnn2cc1Nc1ncc2c(n1)n(C1CCOCC1)c(=O)n2C [AZD7648] + C=CCn1c(=O)c2cnc(Nc3ccc(N4CCN(C)CC4)cc3)nc2n1-c1cccc(C(C)(C)O)n1 [AZD1775] (first compound max 10 µM, partner max 1 µM) | 0.0491 | -0.0082 | -0.0239 | 0.0731 | -0.0283 | -0.0116 | -0.0446 | -0.0189 | 0.0059 | 0.0025 | -0.0469 | 0.0088 | 0.0164 | -0.0222 | -0.0857 | -0.0206 | -0.0659 | -0.0571 | 0.0387 | -0.0111
